According to ChEMBL document CHEMBL1140552, “Preparation, characterization and in vivo conversion of new water-soluble sulfenamide prodrugs of carbamazepine” (Bioorg Med Chem Lett, 2007):

Legend:
Rattus norvegicus [1] = assay: AUC in Sprague-Dawley rat assessed as carbamazepine level at 4.54 mg/187 g, iv; assay type: ADME, organism-based, Plasma; conditions: in vivo
Rattus norvegicus [2] = assay: AUC in Sprague-Dawley rat assessed as carbamazepine level at 5.50 mg/227 g, iv; assay type: ADME, organism-based, Plasma; conditions: in vivo
Rattus norvegicus [3] = assay: Cmax in Sprague-Dawley rat assessed as carbamazepine level at 4.54 mg/187 g, iv; assay type: ADME, organism-based; design: route intravenous; conditions: in vivo
Rattus norvegicus [4] = assay: Cmax in Sprague-Dawley rat assessed as carbamazepine level at 5.50 mg/227 g, iv; assay type: ADME, organism-based; design: route intravenous; conditions: in vivo
[5] = Solubility at pH 2.6; assay type: physicochemical; conditions: buffer

AUC (Rattus norvegicus [1]): 964 µg/min/mL
AUC (Rattus norvegicus [2]): 545 µg/min/mL
Cmax (Rattus norvegicus [3]): 14100 ng/mL
Cmax (Rattus norvegicus [4]): 16300 ng/mL
solubility [5]: 100 mg/mL
Structure (SMILES): NCCSNC(=O)N1c2ccccc2C=Cc2ccccc21.O=C(O)C(F)(F)F
